Assay results from patent US12570536B2, “Ammonia synthesis methods and systems” (President and Fellows of Harvard College, priority 2016, dated 2026).

Key:
[1] = target: nitrogenase; settings: competitive inhibition of nitrogenase; cited from earlier work
[2] = tested on: X. autotrophicus; test: Extracellular NH3 production by the CoPi|Co-P|X. autotrophicus hybrid device after addition of a GS inhibitor; type: cell-based, Xanthobacter autotrophicus
Text: A reactor used in the experiments included a biocompatible water splitting catalyst system including a cobalt-phosphorous (Co—P) alloy cathode for the hydrogen evolution reaction (HER) and a cobalt phosphate (CoPi) anode for the oxygen evolution reaction (OER). This system enabled the use of a low driving voltage (Eappl) while producing the desired hydrogen for use in producing ammonia. Specifically, NH3 synthesis from N2 and H2O was accomplished using the water splitting system and driving the N2 reduction reaction within H2-oxidizing, autotrophic microorganisms. In this case, Xanthobacter autotrophicus (X. autotrophicus) was used. X. autotrophicus is a gram-negative bacterium that belongs to a small group of diazotrophs, which at micro-aerobic condition (less than about 5% O2) can use H2 as their sole energy source to fix CO2 and N2 into biomass. Therefore, in this experimental setup, electrochemical water splitting generated H2 as the biological energy source and in the same reactor X. autotrophicus acted as the room-temperature N2 reduction reaction catalyst to convert H2 and N2 into NH3.
The electrodes included a Co—P cathode for the hydrogen evolution reaction and a CoPi anode for the oxygen evolution reaction. A gas mixture including 2% O2, 20% CO2, and 78% N2 was bubbled through the solution at a flow rate of greater than or equal to 5 mL/min to maintain a micro-aerobic environment.
At the beginning of each experiment, X. autotrophicus was inoculated into the organic-free minimal medium without any nitrogen supplement. A constant driving voltage (Eappl=3.0 V) was applied to the CoPi|Co—P catalyst system, and aliquots were periodically sampled for the quantification of biomass (optical density at 600 nm, OD600) as well as fixed nitrogen (colorimetric assay).
The hybrid device is capable of excreting synthesized NH3 into an extracellular medium. Previous biochemical assays and genome sequencing on this strain indicate that the NH3 generated from nitrogenase is incorporated into biomass via a two-step process mediated by glutamine synthetase (GS) and glutamate synthase (GOGAT) (FIGS. 1 and 5). If the functionality of this NH3 assimilation pathway is disrupted, direct production of an extracellular NH3 fertilizer solution is realized. It has been reported that GS inhibitors can be used for NH3 secretion in sugar-fementating diazotrophs. As a proof of principle, glufosinate (PPT), a specific GS inhibitor commercially used as herbicide, was used to block the NH3 assimilation pathway and allow the synthesized NH3 to passively diffuse out into the extracellular medium (pathway 2 in FIG. 1, and FIG. 5). After the addition of PPT, the biomass of X. autotrophicus stagnated, while Ntotal and the concentration of free NH3 in the solution (NNH3) increased (FIG. 6). […]

[3] = end of experiments, after PPT addition, n=3

Compound | inhibition constant Kis(D2) [1] | biomass of X. autotrophicus after addition ([2]; after the addition of PPT, FIG. 6) | concentration of free NH3 in the solution (NNH3) ([2]; end of experiments, after PPT addition) | accumulated Ntotal [2, 3] | concentration of free NH3 in the solution (NNH3) [2, 3]
[HH] [H2] | ~11 kPa |  |  |  | 
CP(=O)(O)CCC(N)C(=O)O (centres unmarked) [PPT, glufosinate] |  | stagnated | ~0.8 mM | 47 ± 3 mg/L | 11 ± 2 mg/L
